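Cultured in 96-well plates, cells were exposed to test compound for 48 hours across five concentrations. GI50: concentration for 50% inhibition of growth.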 Active and inactive are the calls of the source. Rule as the data show it: active = GI50 up to about 1.1 µM and inactive = higher.
Assays:
Experiment in all cases: growth of human tumour cells (NCI), 48 h
[1] = tested on: TK-10
[2] = tested on: SK-MEL-28
[3] = tested on: 786-0
[4] = tested on: SF-295
[5] = tested on: SF-539
[6] = tested on: NCI-H23
[7] = tested on: SW-620
[8] = tested on: Hs-578T
[9] = tested on: SNB-75
[10] = tested on: NCI-H522
[11] = tested on: HCT-116
[12] = tested on: HCT-15
[13] = tested on: SK-MEL-2
[14] = tested on: HT-29
[15] = tested on: NCI-H226
[16] = tested on: IGROV-1
[17] = tested on: HL-60
[18] = tested on: UACC-257
[19] = tested on: OVCAR-3
[20] = tested on: MCF7

Row | Compound | GI50 [1] | GI50 [2] | GI50 [3] | GI50 [4] | GI50 [5] | GI50 [6] | GI50 [7] | GI50 [8] | GI50 [9] | GI50 [10] | GI50 [11] | GI50 [12] [µM] | GI50 [13] | GI50 [14] | GI50 [15] | GI50 [16] | GI50 [17] | GI50 [18] | GI50 [19] | GI50 [20]
1 | COc1ccc2c(c1)nc1n2C(N)=Nc2ccccc2S1 | > 100 µM (inactive) | > 80.5 µM (inactive) | 9.68 µM (inactive) | 44.2 µM (inactive) | 33.4 µM (inactive) | 40.6 µM (inactive) | 28.5 µM (inactive) | 61 µM (inactive) | > 42.9 µM (inactive) | 16.6 µM (inactive) | 5.3 µM (inactive) | 35.4 | > 100 µM (inactive) | 17.7 µM (inactive) | 11.6 µM (inactive) | 3.75 µM (inactive) | 2.64 µM (inactive) | 32.5 µM (inactive) | 5.55 µM (inactive) | 11.3 µM (inactive)
2 | COc1ccc2c(c1)[C@@H](NC(C)=O)CCc1cc(OC)c(OC)c(OC)c1-2 | 2.54 µM (inactive) | < 0.017 µM (active) | 0.019 µM (active) | 0.0151 µM (active) | 0.013 µM (active) | 0.0143 µM (active) | 0.0172 µM (active) | 0.0169 µM (active) | 0.0258 µM (active) | 0.013 µM (active) | 0.0148 µM (active) | 0.015 | 0.0174 µM (active) | 0.0146 µM (active) | 0.0891 µM (active) | 0.0173 µM (active) | < 0.012 µM (active) | 0.108 µM (active) | 0.0144 µM (active) | 0.0463 µM (active)
3 | CCCCCCCCCCCCCCCC1(OC)C[N+](C)(C)CCO1 (stereo not given) | 2.45 µM (inactive) | 2.37 µM (inactive) | 0.813 µM (active) | 1.69 µM (inactive) | 1.74 µM (inactive) | 1.3 µM (inactive) | 3.21 µM (inactive) | 1.97 µM (inactive) | 0.0556 µM (active) | 1.65 µM (inactive) | 1.63 µM (inactive) | 6.01 | 2.38 µM (inactive) | 1.22 µM (inactive) | 1.08 µM (active) | 1.61 µM (inactive) | 0.0883 µM (active) | 2.08 µM (inactive) | 1.75 µM (inactive) | 0.221 µM (active)
4 | O=C1C=CC(=O)C1(Br)Br | 2.67 µM (inactive) | 7.24 µM (inactive) | 9.18 µM (inactive) | 17.2 µM (inactive) | 16.4 µM (inactive) | 15.5 µM (inactive) | 10.1 µM (inactive) | 17.9 µM (inactive) | 12 µM (inactive) | 6.27 µM (inactive) | 7.69 µM (inactive) | 6.53 | 12.5 µM (inactive) | 7.38 µM (inactive) | 19 µM (inactive) | 5.01 µM (inactive) | 11.4 µM (inactive) | 16.1 µM (inactive) | 12.9 µM (inactive) | 11 µM (inactive)
5 | CC(C)(C)CC(C)(C)N/C(N)=N/O | > 48.5 µM (inactive) | > 100 µM (inactive) | > 100 µM (inactive) | > 100 µM (inactive) | > 60.8 µM (inactive) | > 91 µM (inactive) | > 100 µM (inactive) | 15 µM (inactive) | > 86.5 µM (inactive) | > 100 µM (inactive) | 9.71 µM (inactive) | 56.1 | > 100 µM (inactive) | > 100 µM (inactive) | 58.5 µM (inactive) | > 86.7 µM (inactive) | > 55.7 µM (inactive) | 41.4 µM (inactive) | 22.2 µM (inactive) | 8.79 µM (inactive)

Reference: ChEMBL document CHEMBL1201862, “PubChem BioAssay data set” (2004)
